Source: patent publication US10689378B2, “Triazolopyridine compounds and uses thereof” (Novartis AG, priority 2016, dated 2020)
Where two headings read alike, the source gives them in different places.

Columns and labels:
[1] = target: T1, EED (1-441)-His protein (Homo sapiens, UniProt O75530); assay: EED-H3K27Me3 peptide competition binding assay by AlphaScreen
T1 construct: 30 nM EED (1-441)-His protein
Description: EED-H3K27Me3 Peptide Competition Binding Assay by AlphaScreen (α-Screen)
To assess the compounds' potency in the EED-H3K27Me3 competition binding assay, compounds were serially diluted 3-fold in DMSO to obtain a total of twelve concentrations. Then compounds at each concentration (75 nL of each) were transferred by Mosquito into a 384-well Perkin Elmer ProxiPlate 384 plus plates. 8 uL of solutions containing 30 nM EED (1-441)-His protein and 15 nM biotin-H3K27Me3 (19-33) peptide in the buffer (25 mM HEPES, pH 8, 0.02% Tween-20, 0.5% BSA) were added to the wells and then incubated with compound for 20 min. AlphaScreen detection beads mix was prepared immediately before use by mixing nickel chelate acceptor beads and streptavidin donor beads in a 1:1 ratio (Perkin Elmer, Product No. 6760619C/M/R) into the buffer described above. Then 4 μL of detection beads mix was added to the plate and incubate in the dark at the rt for 1 h. The final concentration of donor and acceptor beads was 10 μg/mL for each. Plates were read on EnVision (PerkinElmer) using the AlphaScreen setting adapted for optimal signal detection with a 615 nm filter, after sample excitation at 680 nm. The emission signal at 615 nm was used to quantify compounds inhibition. AlphaScreen signals were normalized based on the reading coming from the positive (maximum signal control) and negative controls (minimum signal control) to give percentage of activities left. The data were then fit to a dose response equation using the program Helios (Novartis) to get the IC50 values. Helios is a Novartis in-house assay data analysis software using the methods described by Normolle, D. P., Statistics in Medicine, 12:2025-2042 (1993); Formenko, I. et al, Computer Methods and Programs in Biomedicine, 82, 31-37 (2006); Sebaugh, J. L., Pharmaceutical Statistics, 10:128-134 (2011); Kelly, C. et al., Biometrics, 46(4):1071-1085 (1990); and Kahm, M. et al., Journal of Statistical Software, 33 (7): (2010) (grofit: Fitting Biological Growth Curves with R, pages 1-21, available at http://www.jstatsoft.org/).

[2] = tested on: H3K27 methylation in G401 cell; assay: ELISA (H3K27 methylation) assay in G401 cells; assay type: cell-based, human; conditions: Homo sapiens
Description: Compounds of the present invention were assessed for their ability to inhibit PRC2 activity in a pentameric complex of EZH2, SUZ12, EED, Rbap48 and AEBP in biochemical assays. The ability of compounds of the present invention to inhibit cellular activity of PRC2 was assessed by analysing histone H3 lysine 27 methylation in human cell lines. The ability of compounds of the present invention to inhibit cancers was derived from their ability to modulate activity in human cancer cell lines bearing specific dependence to PRC2 activity to maintain cancerous growth.
ELISA (H3K27 Methylation) Assay
Representative compounds of the present invention were serially and separately diluted 3-fold in DMSO to obtain a total of eight or twelve concentrations. Then the compounds were added to G401 cell cultured in 384-well plate at 1:500 dilution to obtain the highest concentration of 20 μM. The cells were further cultured for 48 h before ELISA procedure.
Histone extraction: Cells, in 384-well plate, were washed with PBS (10×PBS buffer (80 g NaCl (Sigma, S3014), 2 g KCl (Sigma, 60128), 14.4 g Na2HPO4 (Sigma, S5136), 2.4 g KH2PO4 (Sigma, P9791) to 1 L water, pH to 7.4) and lysed with the addition of lysis buffer (0.4N HCl; 45 μL per well). The plate was gently agitated at 4° C. for 30 min. The cell lysate was neutralized with neutralization buffer (0.5 M sodium phosphate dibasic, pH 12.5, 1 mM DTT; 36 μL per well). The plate was agitated to ensure the lysates were well mixed prior to the ELISA protocol.
ELISA protocol: Cell lysates were transferred to the wells of a 384-well plate and the final volume was adjusted to 50 μL per well with PBS. The plate was sealed, centrifuged at 2,000 rpm for 2 min and incubated at 4° C. for about 16 h. The plate was washed with TBST buffer (1×TBS (10×TBS: 24.2 g Tris (Sigma, T6066), 80 g NaCl (Sigma, S3014) to 1 L of water and adjust pH to 7.6 with HCl) with 0.1% Tween-20). Blocking buffer (TBST, 5% BSA; 50 μL per well) was added and the plate was incubated for 1 h at rt. The blocking buffer was removed and primary antibody was added (30 μL per well). The following dilutions were performed with blocking buffer: for anti-H3K27me3 antibody (Cell Signaling Technology, #9733), dilution was 1:1000; for anti-H3K27me2 antibody (Cell Signaling Technology, #9288), dilution was 1:100; for anti-H3 antibody (Abcam, Cat #24834), dilution was 1:1000. The primary antibody was incubated in the plate at rt for 1 h. The wells were washed with TBST and incubated with secondary antibody for 1 h at rt. For secondary antibodies, the following dilutions were carried out with blocking buffer: anti-rabbit antibody (Jackson ImmunoResearch, #111-035-003), dilution was 1:2000; and anti-mouse antibody (Cell signaling technology, #7076), dilution was 1:1000. After 1 h of incubation at rt, the wells were washed with TBST. ECL substrate (Pierce, #34080) was added at 30 μL per well and the plates were centrifuged at 2,000 rpm for 2 min. The signal was read using a PerkinElmer Envision Reader. The H3K27 methylation readouts were normalized using H3 signal and then percentage inhibition was calculated against the samples treated with DMSO. The data were then fit to a dose response curve using the program Helios to get the IC50 values of the test compound.

[3] = read-out: (a) IC50, EED Alphascreen binding Qualified
[4] = G-401, read-out: (c) IC50, ELISA Qualified
[5] = EED-H3K27Me3 peptide competition, AlphaScreen, read-out: (a) IC50 EED Alphascreen binding Qualified
[6] = G-401, H3K27 methylation ELISA, read-out: (c) IC50 ELISA Qualified

T1 sequence (O75530 whole entry): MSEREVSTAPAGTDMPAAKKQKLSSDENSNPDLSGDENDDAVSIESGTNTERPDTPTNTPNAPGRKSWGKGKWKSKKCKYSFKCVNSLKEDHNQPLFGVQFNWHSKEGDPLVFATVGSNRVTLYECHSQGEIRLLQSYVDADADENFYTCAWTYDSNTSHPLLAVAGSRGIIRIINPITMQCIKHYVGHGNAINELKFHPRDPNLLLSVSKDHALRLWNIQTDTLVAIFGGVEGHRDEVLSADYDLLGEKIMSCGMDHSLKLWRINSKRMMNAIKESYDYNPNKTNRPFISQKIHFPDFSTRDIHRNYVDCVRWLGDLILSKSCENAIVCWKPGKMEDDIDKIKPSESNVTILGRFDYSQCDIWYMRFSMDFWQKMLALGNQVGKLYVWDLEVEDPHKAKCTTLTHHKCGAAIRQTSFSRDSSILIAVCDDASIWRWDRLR

Row | SMILES | IC50 [1, 3] | IC50 [2, 4] | further results
1 | COc1ccccc1-c1ccc(NCc2c(F)cccc2OC)n2cnnc12 [Example 191, N-(2-fluoro-6-methoxybenzyl)-8-(2-methoxyphenyl)-[1,2,4]triazolo[4,3-a] pyridin-5-amine] | – | – | IC50 [1, 5]: 479 nM; IC50 [2, 6]: 996 nM
2 | COc1cccc(F)c1CNc1ccc(-c2cnccc2C(F)(F)F)c2nncn12 [Example 202, N-(2-fluoro-6-methoxybenzyl)-8-(4-(trifluoromethyl)pyridin-3-yl)-[1,2,4]triazolo[4,3-a] pyridin-5-amine] | – | – | IC50 [1, 5]: 270 nM; IC50 [2, 6]: 318 nM
3 | COc1ccc(F)cc1CNc1ccc(-c2ccc(S(=O)(=O)C3CCN(C)CC3)cc2)c2nncn12 [Example 135, N-(5-fluoro-2-methoxybenzyl)-8-(4-((1-methylpiperidin-4-yl)sulfonyl)phenyl)-[1,2,4]triazolo[4,3-a] pyridin-5-amine] | 444 nM | 279 nM | –
4 | COc1ccccc1CNc1ccc(-c2cnc(N3CCN(C)CC3)c(Cl)c2)c2nncn12 [Example 75, 8-(5-chloro-6-(4-methylpiperazin-1-yl)pyridin-3-yl)-N-(2-methoxybenzyl)-[1,2,4] triazolo[4,3-a]pyridin-5-amine] | 132 nM | 488 nM | –
5 | Cc1cccc(F)c1CNc1ccc(-c2cccnc2C)c2nncn12 [Example 331, N-(2-fluoro-6-methylbenzyl)-8-(2-methylpyridin-3-yl)-[1,2,4]triazolo[4,3-a] pyridin-5-amine] | – | – | IC50 [1, 5]: 459 nM; IC50 [2, 6]: 519 nM
6 | COc1cc(CNc2ccc(-c3cccnc3C)c3nncn23)c(F)cc1F [Example 285, N-(2,4-difluoro-5-methoxybenzyl)-8-(2-methylpyridin-3-yl)-[1,2,4]triazolo[4,3-a] pyridin-5-amine] | – | – | IC50 [1, 5]: 176 nM; IC50 [2, 6]: 112 nM
7 | COc1ccc(F)c(CNc2ccc(-c3cccnc3C)c3nncn23)c1 [Example 291, N-(2-fluoro-5-methoxybenzyl)-8-(2-methylpyridin-3-yl)-[1,2,4]triazolo[4,3-a] pyridin-5-amine] | – | – | IC50 [1, 5]: 184 nM; IC50 [2, 6]: 84.9 nM
8 | COc1cccnc1CNc1ccc(-c2cccnc2C)c2nncn12 [Example 347, N-((3-methoxypyridin-2-yl)methyl)-8-(2-methylpyridin-3-yl)-[1,2,4]triazolo[4,3-a] pyridin-5-amine] | – | – | IC50 ([1]; read-out: (a) IC50 EED Alphascreen binding Qualified): 791 nM; IC50 ([2]; G-401, read-out: (c) IC50 ELISA Qualified): 771 nM
9 | COc1ccccc1CNc1ccc(-c2ccc(N3CCOCC3)c(Cl)c2)c2nncn12 [Example 65, 8-(3-chloro-4-morpholinophenyl)-N-(2-methoxybenzyl)-[1,2,4] triazolo[4,3-a]pyridin-5-amine] | 1660 nM | 11000 nM | –
10 | CCc1ccncc1-c1ccc(NCc2c(F)cc(F)cc2OC)n2cnnc12 [Example 307, N-(2,4-difluoro-6-methoxybenzyl)-8-(4-ethylpyridin-3-yl)-[1,2,4]triazolo[4,3-a] pyridin-5-amine] | – | – | IC50 [1, 5]: 205 nM; IC50 [2, 6]: 226 nM
11 | COc1cc(F)ccc1CNc1ccc(-c2ccc(S(C)(=O)=O)nc2)c2nncn12 [Example 134, N-(4-fluoro-2-methoxybenzyl)-8-(6-(methylsulfonyl)pyridin-3-yl)-[1,2,4]triazolo[4,3-a] pyridin-5-amine] | 177 nM | 538 nM | –

More lines, main results first:

Row | IC50 [1, 3] | IC50 [2, 4] | SMILES | further results
12 | 177 nM | 1180 nM | COc1cc(F)ccc1CNc1ccc(-c2ccc(S(=O)(=O)N(C)C)cc2)c2nncn12 [Example 84, 4-(5-((4-fluoro-2-methoxybenzyl)amino)-[1,2,4]triazolo[4,3-a]pyridin-8-yl)-N,N-dimethylbenzene sulfonamide] | –
13 | 320 nM | 4240 nM | COc1ccccc1CNc1ccc(-c2ccc(-c3nn[nH]n3)cc2)c2nncn12 [Example 74, 8-(4-(2H-tetrazol-5-yl)phenyl)-N-(2-methoxybenzyl)-[1,2,4]triazolo[4,3-a] pyridin-5-amine] | –
14 | 677 nM | 5140 nM | COc1c(F)cccc1CNc1ccc(-c2ccc(S(C)(=O)=O)cc2)c2nncn12 [Example 119, N-(3-fluoro-2-methoxybenzyl)-8-(4-(methylsulfonyl)phenyl)-[1,2,4]triazolo[4,3-a]pyridin-5-amine] | –
15 | 325 nM | 280 nM | COc1cccc(CNc2ccc(-c3ccc(CN(C)C)cc3)c3nncn23)c1 [Example 14, 8-(4-((dimethylamino)methyl)phenyl)-N-(3-methoxybenzyl)-[1,2,4] triazolo[4,3-a]pyridin-5-amine] | –
16 | 387 nM | 928 nM | COc1ccc(F)cc1CNc1ccc(-c2ccc(CN(C)C)cc2)c2nncn12 [Example 81, 8-(4-((dimethylamino)methyl)phenyl)-N-(5-fluoro-2-methoxybenzyl)-[1,2,4]triazolo[4,3-a]pyridin-5-amine] | –
17 | 1010 nM | 937 nM | CN(C)Cc1ccc(-c2ccc(NCc3ccccc3F)n3cnnc23)cc1 [Example 36, 8-(4-((dimethylamino)methyl)phenyl)-N-(2-fluorobenzyl)-[1,2,4] triazolo [4,3-a]pyridin-5-amine] | –
18 | 1350 nM | 788 nM | COc1cc(CNc2ccc(-c3ccc(CN(C)C)cc3)c3nncn23)ccc1F [Example 156, 8-(4-((dimethylamino)methyl)phenyl)-N-(4-fluoro-3-methoxybenzyl)-[1,2,4] triazolo[4,3-a]pyridin-5-amine] | –
19 | 59.8 nM | 66.3 nM | COc1ccccc1CNc1ccc(-c2cncnc2)c2nncn12 [Example 58, N-(2-methoxybenzyl)-8-(pyrimidin-5-yl)-[1,2,4] triazolo[4,3-a]pyridin-5-amine] | –
20 | 138 nM | 299 nM | COc1cc(F)ccc1CNc1ccc(-c2ccncc2)c2nncn12 [Example 92, N-(4-fluoro-2-methoxybenzyl)-8-(pyridin-4-yl)-[1,2,4]triazolo[4,3-a]pyridin-5-amine] | –
21 | 234 nM | 249 nM | CN(C)Cc1ccc(-c2ccc(NCc3ccccc3)n3cnnc23)cc1 [Example 17, N-benzyl-8-(4-((dimethylamino)methyl)phenyl)-[1,2,4]triazolo[4,3-a] pyridin-5-amine] | –
